According to patent publication US9656963B2 (BRISTOL-MYERS SQUIBB COMPANY, priority 2012, dated 2017):

Target: T1, hGPR40 (Homo sapiens, UniProt O14842)
T1 construct: 3x FLAG; expressed in transfected cells
Experiment: FDSS-Based Intracellular Calcium Assay
Assay type: cell-based
Settings: cells expressing GPR40, intracellular Ca2+ response
Experimental: FDSS-Based Intracellular Calcium Assay
Cell lines expressing GPR40 are generated using the pDEST 3× flag gene expression system and are cultured in culture medium comprising the following components: F12 (Gibco #11765), 10% lipid deprived fetal bovine serum, 250 μg/ml zeocin and 500 μg/ml G418. To conduct the fluorescent imaging plate reader (FLIPR)-based calcium flux assay to measure intracellular Ca^2+ response, cells expressing GPR40 are plated on 384 well plates (BD Biocoat #356697) at a density of 20,000 cells/20 μL medium per well in phenol red and serum-free DMEM (Gibco #21063-029) and incubated overnight. […] Compounds are dissolved in DMSO and diluted to desired concentrations with assay buffer and added to the cells as 3x solution (20 μL per well). Run fluorescence/luminescence reader FDSS (Hamamatsu) to read intracellular Ca^2+ response.

T1 sequence (O14842 whole entry): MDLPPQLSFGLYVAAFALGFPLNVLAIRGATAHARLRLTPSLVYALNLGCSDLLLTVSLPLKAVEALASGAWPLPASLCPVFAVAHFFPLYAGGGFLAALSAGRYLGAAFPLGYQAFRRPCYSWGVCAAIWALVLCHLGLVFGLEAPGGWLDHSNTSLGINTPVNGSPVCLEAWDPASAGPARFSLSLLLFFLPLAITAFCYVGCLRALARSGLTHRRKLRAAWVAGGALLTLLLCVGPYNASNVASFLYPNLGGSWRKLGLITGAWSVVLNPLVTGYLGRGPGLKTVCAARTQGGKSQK

Question: How did the EC50 turn out when `COc1ccc(F)c(-c2ccc(Oc3ccc(N4N=C(C(F)(F)F)CC4CC(=O)O)cc3)c(Cl)c2)c1` (single isomer, unassigned) [Example 42, Isomer 1, 2-(1-(4-(3-chloro-2′-fluoro-5′-methoxybiphenyl-4-yloxy)phenyl)-3-(trifluoromethyl)-4,5-dihydro-1H-pyrazol-5-yl)acetic acid] was run?
Answer: 0.62 µM

Question: For `COc1ccc(F)c(-c2ncc(Cc3ccc(N4N=C(C(F)(F)F)[C@@H](C)[C@@H]4CC(=O)O)cc3)c(C)n2)c1` (single isomer, unassigned) [Example 63], which EC50 is on record?
Answer: 0.7 µM

Question: Which EC50 does the source give for `COc1ccc(F)c(-c2ccc(Cc3ccc(N4N=C(C(F)(F)F)CC4CC(=O)O)cc3)cc2C)c1` (single isomer, unassigned) [Example 22, Isomer 1, 2-(1-(4-((2′-fluoro-5′-methoxy-2-methylbiphenyl-4-yl)methyl)phenyl)-3-(trifluoromethyl)-4,5-dihydro-1H-pyrazol-5-yl)acetic acid] here?
Answer: 0.77 µM

Question: `COc1ccc(F)c(-c2ccc(Oc3ccc(N4N=C(C(F)(F)F)CC4CC(=O)O)cc3)c(Cl)c2)c1` (single isomer, unassigned) [Example 42, Isomer 2, 2-(1-(4-(3-chloro-2′-fluoro-5′-methoxybiphenyl-4-yloxy)phenyl)-3-(trifluoromethyl)-4,5-dihydro-1H-pyrazol-5-yl)acetic acid] was tested. Which EC50 did it give?
Answer: 0.29 µM

Question: With `COc1ccc(F)c(-c2ccc(Cc3ccc(N4N=C(c5cc(C)on5)[C@@H](C)[C@@H]4CC(=O)O)cc3)c(C)c2)c1` (single isomer, unassigned) [Example 69, isomer 1] as the compound, how does the EC50 read?
Answer: 0.057 µM

Question: For `COc1ccc(F)c(-c2ccc(Cc3ccc(N4N=C(C(F)(F)F)C(C)C4CC(=O)O)cc3)c(Cl)c2)c1` (single isomer, unassigned) [Example 60, Isomer 2, 22-(1-(4-((3-chloro-2′-fluoro-5′-methoxy-[1,1′-biphenyl]-4-yl)methyl)phenyl)-4-methyl-3-(trifluoromethyl)-4,5-dihydro-1H-pyrazol-5-yl)acetic acid], which EC50 is on record?
Answer: 0.04 µM

Question: Which EC50 does the source give for `COc1cccc(-c2ccc(Cc3ccc(N4N=C(C(F)(F)F)CC4CC(=O)O)cc3)c(C)c2)c1` (single isomer, unassigned) [Example 26, Isomer 2, 2-(1-(4-((3′-methoxy-3-methylbiphenyl-4-yl)methyl)phenyl)-3-(trifluoromethyl)-4,5-dihydro-1H-pyrazol-5-yl)acetic acid] here?
Answer: 0.12 µM

Question: Which EC50 does the source give for `COc1ccc(F)c(-c2ccc(Cc3ccc(N4N=C(C(F)(F)F)CC4CC(=O)O)cc3)c(F)c2)c1` (single isomer, unassigned) [Example 19, Isomer 1, 2-(1-(4-((2′,3-difluoro-5′-methoxybiphenyl-4-yl)methyl)phenyl)-3-(trifluoromethyl)-4,5-dihydro-1H-pyrazol-5-yl)acetic acid] here?
Answer: 0.58 µM

Question: Which EC50 does the source give for `COc1ccc(F)c(-c2ccc(Cc3ccc(N4N=C(c5ncccn5)C(C)C4CC(=O)O)cc3)c(C)c2)c1` (single isomer, unassigned) [Example 61, isomer 2] here?
Answer: 0.46 µM

Question: How did the EC50 turn out when `COc1ccc(F)c(-c2ccc(Cc3ccc(N4N=C(c5ccc(Cl)cc5)[C@@H](C)[C@@H]4CC(=O)O)cc3)c(C)c2)c1` (single isomer, unassigned) [Example 66, Isomer 1] was run?
Answer: 0.013 µM

Question: `COc1ccc(F)c(-c2ccc(Cc3ccc(N4N=C(C(F)(F)F)C(CC(C)C)C4CC(=O)O)cc3)c(C)c2)c1` (single isomer, unassigned) [Example 41, Isomer 2, 2-(1-(4-((2′-fluoro-5′-methoxy-3-methylbiphenyl-4-yl)methyl)phenyl)-4-isobutyl-3-(trifluoromethyl)-4,5-dihydro-1H-pyrazol-5-yl)acetic acid] was tested. Which EC50 did it give?
Answer: 0.095 µM

Question: Which EC50 does the source give for `COc1ccc(F)c(-c2ccc(Cc3ccc(N4N=C(c5ccn(C)n5)C(C)C4CC(=O)O)cc3)c(C)c2)c1` (single isomer, unassigned) [Example 55, Isomer 2, 2-((1-(4-((2′-fluoro-5′-methoxy-3-methyl-[1,1′-biphenyl]-4-yl)methyl)phenyl)-1′,4-dimethyl-4,5-dihydro-1H,1′H-[3,3′-bipyrazol]-5-yl)acetic acid, trans-diastereomer] here?
Answer: 0.23 µM

Question: Which EC50 does the source give for `Cc1cc(-c2cnccn2)ccc1Cc1ccc(N2N=C(C(F)(F)F)[C@@H](C)[C@@H]2CC(=O)O)cc1` [Example 76, 2-((4S,5 S)-4-methyl-1-(4-(2-methyl-4-(pyrazin-2-yl)benzyl)phenyl)-3-(trifluoromethyl)-4,5-dihydro-1H-pyrazol-5-yl)acetic acid] here?
Answer: 1.62 µM

Question: Which EC50 does the source give for `COc1ccc(Cl)c(-c2ccc(Cc3ccc(N4N=C(C(F)(F)F)CC4CC(=O)O)cc3)cc2C)c1` (racemic) [Example 23, 2-(1-(4-((2′-chloro-5′-methoxy-2-methylbiphenyl-4-yl)methyl)phenyl)-3-(trifluoromethyl)-4,5-dihydro-1H-pyrazol-5-yl)acetic acid] here?
Answer: 0.35 µM

Question: For `COc1ccc(F)c(-c2ccc(Cc3ccc(N4N=C(C#N)CC4CC(=O)O)cc3)c(C)c2)c1` (single isomer, unassigned) [Example 34, Isomer 2, 2-(3-cyano-1-(4-((2′-fluoro-5′-methoxy-3-methylbiphenyl-4-yl)methyl)phenyl)-4,5-dihydro-1H-pyrazol-5-yl)acetic acid], which EC50 is on record?
Answer: 0.56 µM

Question: With `COc1ccc(F)c(-c2ccc(Cc3ccc(N4N=C(C(F)(F)F)C(C)(C)C4CC(=O)O)cc3)c(C)c2)c1` (single isomer, unassigned) [Example 50, Isomer 2, 2-(1-(4-((2′-fluoro-5′-methoxy-3-methylbiphenyl-4-yl)methyl)phenyl)-4,4-dimethyl-3-(trifluoromethyl)-4,5-dihydro-1H-pyrazol-5-yl)acetic acid] as the compound, how does the EC50 read?
Answer: 1.34 µM

Question: For `COc1ccc(F)c(-c2ccc(Oc3ccc(N4N=C(C(F)(F)F)CC4CC(=O)O)cc3)cc2C)c1` (single isomer, unassigned) [Example 16, Isomer 2, 2-(1-(4-(2′-fluoro-5′-methoxy-2-methylbiphenyl-4-yloxy)phenyl)-3-(trifluoromethyl)-4,5-dihydro-1H-pyrazol-5-yl)acetic acid], which EC50 is on record?
Answer: 0.34 µM

Question: With `COc1cccc(-c2ccc(Oc3ccc(N4N=C(C(F)(F)F)CC4CC(=O)O)cc3)c(C)c2)c1` (single isomer, unassigned) [Example 9, Isomer 2, 2-(1-(4-(3′-methoxy-3-methylbiphenyl-4-yloxy)phenyl)-3-(trifluoromethyl)-4,5-dihydro-1H-pyrazol-5-yl)acetic acid] as the compound, how does the EC50 read?
Answer: 0.29 µM

Question: Which EC50 does the source give for `COc1ccc(F)c(-c2ccc(Cc3ccc(N4N=C(c5ccccc5)C(C)C4CC(=O)O)cc3)c(C)c2)c1` (single isomer, unassigned) [Example 59, Isomer 2, 2-(1-(4-((2′-fluoro-5′-methoxy-3-methyl-[1,1′-biphenyl]-4-yl)methyl)phenyl)-4-methyl-3-phenyl-4,5-dihydro-1H-pyrazol-5-yl)acetic acid] here?
Answer: 0.006 µM

Question: For `COc1ccc(F)c(-c2ccc(Cc3ccc(N4N=C(C(F)(F)F)CC4CC(=O)O)cc3)c(F)c2)c1` (single isomer, unassigned) [Example 19, Isomer 2, 2-(1-(4-((2′,3-difluoro-5′-methoxybiphenyl-4-yl)methyl)phenyl)-3-(trifluoromethyl)-4,5-dihydro-1H-pyrazol-5-yl)acetic acid], which EC50 is on record?
Answer: 0.09 µM
